# Measurements taken from patent publication US11446282B2, “Methods of treating mixed dyslipidemia and hypertriglycertdemia” (Kowa Company, Ltd., priority 2017, dated 2022).
# System: dyslipidemic patients with or without statin
# Assay: Example 4 pooled analysis of phase 2 and 3 studies: safety parameters
# Format: in vivo, human
# Protocol: The present study analyzed data combined from 6 randomized double-blind placebo-controlled studies that were conducted in Japan and continued for 12 weeks unless otherwise noted: a phase 2 study in 224 patients with a history of documented dyslipidemia and plasma TG of 200 mg/dL (2.26 mmol/L) or higher, randomized to placebo, pemafibrate 0.05, 0.1, 0.2, 0.4 mg/day, or fenofibrate 100 mg/day; a phase 3 study in 526 patients with dyslipidemia, high TG levels, and low HDL-C levels, randomized to placebo, pemafibrate 0.1, 0.2, or 0.4 mg/day, or fenofibrate 100 or 200 mg/day; a study in 188 patients with dyslipidemia, randomized to pitavastatin in combination with pemafibrate 0.1, 0.2, or 0.4 mg/day; a 24-week study in 423 patients with dyslipidemia, randomized to pemafibrate 0.2 mg/day (fixed dose) or 0.2 [0.4] mg/day (conditional up-titration) with any statin; a 24-week phase 3 study in 166 patients with type 2 diabetes and hypertriglyceridemia, randomized to placebo or pemafibrate 0.2 or 0.4 mg/day; and a study in 27 patients with hypertriglyceridemia and insulin resistance, randomized to pemafibrate 0.4 mg/day or placebo. All studies were approved by the Institutional Review Board for each study institution and were conducted in accordance with the Declaration of Helsinki and under the guidelines of Good Clinical Practice.
# In this study, we evaluated the efficacy and safety of pemafibrate at doses of 0.1 mg/day, 0.2 mg/day, and 0.4 mg/day, with and without statin. The primary efficacy endpoint was percent change in TG from baseline to 12 weeks. The secondary efficacy endpoints were also assessed from baseline to 12 weeks: percent change in HDL-C, LDL-C, non-HDL-C, TC, RemL-C, Apo AI, Apo AII, Apo B, Apo B48, Apo CII, Apo CIII, Apo CIII/Apo CII, and Apo E; percent change in HPLC findings for CM-C, VLDL-C, cholesterol content in 4 subclasses of LDL (large, medium, small, and very small LDLs), and cholesterol content for 5 subclasses of HDL (very large, large, medium, small, and very small HDLs); and changes in fibrinogen and FGF21. The primary safety endpoints were the incidence of adverse events and adverse drug reactions. Secondary safety endpoints were percentage of values above the upper limit of normal range for AST, ALT, sCr and CK, and change in sCr eGFR, CK, AST, ALT, gamma-glutamyl transferase (γ-GT), alkaline phosphatase (ALP), and total bilirubin.
# Patients with renal dysfunction were defined as those with baseline eGFR<60 mL/min/1.73 m^2. Analysis was stratified by the presence or absence of renal dysfunction in the concomitant statin group, and efficacy and safety of pemafibrate were evaluated. In efficacy and safety evaluations excluding AEs, ADRs, and cutoff values for AST, ALT, sCr, and CK, findings were combined for pemafibrate subgroups receiving doses of 0.1 mg/day, 0.2 mg/day, and 0.4 mg/day.
# For each lipid parameter, gel filtration HPLC was performed at Skylight Biotech, Inc. Other measurements were performed at LSI Medience Corporation. The FAS was used for analyzing efficacy parameters of effects on lipids, fibrinogen, and FGF21. The safety analysis set was used for safety parameters and included all patients who received at least one dose of the study drug. For lipid parameters, fibrinogen, and FGF21, LS means (95% confidence interval) were calculated at Week 12 (LOCF) using analysis of covariance (ANCOVA) with baseline values as the co-variable within each category. For safety parameters, LS means (95% confidence interval) were calculated at Week 12 using ANCOVA with baseline values as the co-variable within each category. SAS version 9.2 was used for analyses.
# [1] = Without Statin, 0.1 mg/day, n=82
# [2] = Without Statin, 0.2 mg/day, n=202
# [3] = Without Statin, 0.4 mg/day, n=173
# [4] = Without Statin, 0.4 mg/day, n=174
compound,measurement,setting,value
"CC[C@@H](Oc1cccc(CN(CCCOc2ccc(OC)cc2)c2nc3ccccc3o2)c1)C(=O)O [Pemafibrate, (2R)-2-[3-({1,3-benzoxazol-2-yl[3-(4-methoxyphenoxy)propyl]amino}methyl)phenoxy]butanoic acid]","ADE Leading to withdrawal, number of patients","With Statin, 0.1 mg/day, n=45",1
same,"ADE Leading to withdrawal, percentage of patients","With Statin, 0.1 mg/day, n=45",(2.2) percentage
same,"ADE Serious, number of patients","With Statin, 0.1 mg/day, n=45",0
same,"ADE Total, number of patients","With Statin, 0.1 mg/day, n=45",3
same,"ADE Total, percentage of patients","With Statin, 0.1 mg/day, n=45",(6.7) percentage
same,"AE Leading to withdrawal, number of patients","With Statin, 0.1 mg/day, n=45",2
same,"AE Leading to withdrawal, percentage of patients","With Statin, 0.1 mg/day, n=45",(4.4) percentage
same,"AE Serious, number of patients","With Statin, 0.1 mg/day, n=45",2
same,"AE Serious, percentage of patients","With Statin, 0.1 mg/day, n=45",(4.4) percentage
same,"AE Total, number of patients","With Statin, 0.1 mg/day, n=45",29
same,"AE Total, percentage of patients","With Statin, 0.1 mg/day, n=45",(64.4) percentage
same,"ALT ≥ ULN × 3, number of patients","With Statin, 0.1 mg/day, n=45",1
same,"ALT ≥ ULN × 3, percentage of patients","With Statin, 0.1 mg/day, n=45",(2.2) percentage
same,"AST ≥ ULN × 3, number of patients","With Statin, 0.1 mg/day, n=45",0
same,"CK ≥ 2.5 and < ULN × 5, number of patients","With Statin, 0.1 mg/day, n=45",2
same,"CK ≥ 2.5 and < ULN × 5, percentage of patients","With Statin, 0.1 mg/day, n=45",(4.4) percentage
same,"CK ≥ 5 and < ULN × 10, number of patients","With Statin, 0.1 mg/day, n=45",0
same,"CK ≥ ULN × 10, number of patients","With Statin, 0.1 mg/day, n=45",0
same,"sCr ≥ ULN, number of patients","With Statin, 0.1 mg/day, n=45",8
same,"sCr ≥ ULN, percentage of patients","With Statin, 0.1 mg/day, n=45",(17.8) percentage
same,"ADE Leading to withdrawal, number of patients","With Statin, 0.2 mg/day, n=382",11
same,"ADE Leading to withdrawal, percentage of patients","With Statin, 0.2 mg/day, n=382",(2.9) percentage
same,"ADE Serious, number of patients","With Statin, 0.2 mg/day, n=382",2
same,"ADE Serious, percentage of patients","With Statin, 0.2 mg/day, n=382",(0.5) percentage
same,"ADE Total, number of patients","With Statin, 0.2 mg/day, n=382",36
same,"ADE Total, percentage of patients","With Statin, 0.2 mg/day, n=382",(9.4) percentage
same,"AE Leading to withdrawal, number of patients","With Statin, 0.2 mg/day, n=382",12
same,"AE Leading to withdrawal, percentage of patients","With Statin, 0.2 mg/day, n=382",(3.1) percentage
same,"AE Serious, number of patients","With Statin, 0.2 mg/day, n=382",6
same,"AE Serious, percentage of patients","With Statin, 0.2 mg/day, n=382",(1.6) percentage
same,"AE Total, number of patients","With Statin, 0.2 mg/day, n=382",164
same,"AE Total, percentage of patients","With Statin, 0.2 mg/day, n=382",(42.9) percentage
same,"ALT ≥ ULN × 3, number of patients","With Statin, 0.2 mg/day, n=382",0
same,"AST ≥ ULN × 3, number of patients","With Statin, 0.2 mg/day, n=382",1
same,"AST ≥ ULN × 3, percentage of patients","With Statin, 0.2 mg/day, n=382",(0.3) percentage
same,"CK ≥ 2.5 and < ULN × 5, number of patients","With Statin, 0.2 mg/day, n=382",7
same,"CK ≥ 2.5 and < ULN × 5, percentage of patients","With Statin, 0.2 mg/day, n=382",(1.6) percentage
same,"CK ≥ 5 and < ULN × 10, number of patients","With Statin, 0.2 mg/day, n=382",3
same,"CK ≥ 5 and < ULN × 10, percentage of patients","With Statin, 0.2 mg/day, n=382",(0.6) percentage
same,"CK ≥ ULN × 10, number of patients","With Statin, 0.2 mg/day, n=382",1
same,"CK ≥ ULN × 10, percentage of patients","With Statin, 0.2 mg/day, n=382",(0.3) percentage
same,"sCr ≥ ULN, number of patients","With Statin, 0.2 mg/day, n=382",61
same,"sCr ≥ ULN, percentage of patients","With Statin, 0.2 mg/day, n=382",(16.0) percentage
same,"ADE Leading to withdrawal, number of patients","With Statin, 0.4 mg/day, n=72",0
same,"ADE Serious, number of patients","With Statin, 0.4 mg/day, n=72",0
same,"ADE Total, number of patients","With Statin, 0.4 mg/day, n=72",2
same,"ADE Total, percentage of patients","With Statin, 0.4 mg/day, n=72",(2.8) percentage
same,"AE Leading to withdrawal, number of patients","With Statin, 0.4 mg/day, n=72",0
same,"AE Serious, number of patients","With Statin, 0.4 mg/day, n=72",0
same,"AE Total, number of patients","With Statin, 0.4 mg/day, n=72",34
same,"AE Total, percentage of patients","With Statin, 0.4 mg/day, n=72",(47.2) percentage
same,"ALT ≥ ULN × 3, number of patients","With Statin, 0.4 mg/day, n=72",1
same,"ALT ≥ ULN × 3, percentage of patients","With Statin, 0.4 mg/day, n=72",(1.4) percentage
same,"AST ≥ ULN × 3, number of patients","With Statin, 0.4 mg/day, n=72",1
same,"AST ≥ ULN × 3, percentage of patients","With Statin, 0.4 mg/day, n=72",(1.4) percentage
same,"CK ≥ 2.5 and < ULN × 5, number of patients","With Statin, 0.4 mg/day, n=72",2
same,"CK ≥ 2.5 and < ULN × 5, percentage of patients","With Statin, 0.4 mg/day, n=72",(2.8) percentage
same,"CK ≥ 5 and < ULN × 10, number of patients","With Statin, 0.4 mg/day, n=72",0
same,"CK ≥ ULN × 10, number of patients","With Statin, 0.4 mg/day, n=72",0
same,"sCr ≥ ULN, number of patients","With Statin, 0.4 mg/day, n=72",11
same,"sCr ≥ ULN, percentage of patients","With Statin, 0.4 mg/day, n=72",(15.3) percentage
same,"ADE Leading to withdrawal, number of patients",[1],1
same,"ADE Leading to withdrawal, percentage of patients",[1],(1.2) percentage
same,"ADE Serious, number of patients",[1],0
same,"ADE Total, number of patients",[1],3
same,"ADE Total, percentage of patients",[1],(3.7) percentage
same,"AE Leading to withdrawal, number of patients",[1],2
same,"AE Leading to withdrawal, percentage of patients",[1],(2.4) percentage
same,"AE Serious, number of patients",[1],1
same,"AE Serious, percentage of patients",[1],(1.2) percentage
same,"AE Total, number of patients",[1],27
same,"AE Total, percentage of patients",[1],(32.9) percentage
same,"ALT ≥ ULN × 3, number of patients",[1],0
same,"AST ≥ ULN × 3, number of patients",[1],0
same,"CK ≥ 2.5 and < ULN × 5, number of patients",[1],2
same,"CK ≥ 2.5 and < ULN × 5, percentage of patients",[1],(2.4) percentage
same,"CK ≥ 5 and < ULN × 10, number of patients",[1],0
same,"CK ≥ ULN × 10, number of patients",[1],0
same,"sCr ≥ ULN, number of patients",[1],15
same,"sCr ≥ ULN, percentage of patients",[1],(18.3) percentage
same,"ADE Leading to withdrawal, number of patients",[2],2
same,"ADE Leading to withdrawal, percentage of patients",[2],(1.0) percentage
same,"ADE Serious, number of patients",[2],1
same,"ADE Serious, percentage of patients",[2],(0.5) percentage
same,"ADE Total, number of patients",[2],14
same,"ADE Total, percentage of patients",[2],(6.9) percentage
same,"AE Leading to withdrawal, number of patients",[2],3
same,"AE Leading to withdrawal, percentage of patients",[2],(1.5) percentage
same,"AE Serious, number of patients",[2],4
same,"AE Serious, percentage of patients",[2],(2.0) percentage
same,"AE Total, number of patients",[2],78
same,"AE Total, percentage of patients",[2],(38.6) percentage
same,"ALT ≥ ULN × 3, number of patients",[2],0
same,"AST ≥ ULN × 3, number of patients",[2],0
same,"CK ≥ 2.5 and < ULN × 5, number of patients",[2],3
same,"CK ≥ 2.5 and < ULN × 5, percentage of patients",[2],(1.5) percentage
same,"CK ≥ 5 and < ULN × 10, number of patients",[2],0
same,"CK ≥ ULN × 10, number of patients",[2],0
same,"sCr ≥ ULN, number of patients",[2],34
same,"sCr ≥ ULN, percentage of patients",[2],(16.8) percentage
same,"ALT ≥ ULN × 3, number of patients",[3],0
same,"AST ≥ ULN × 3, number of patients",[3],1
same,"AST ≥ ULN × 3, percentage of patients",[3],(0.6) percentage
same,"CK ≥ 2.5 and < ULN × 5, number of patients",[3],0
same,"CK ≥ 5 and < ULN × 10, number of patients",[3],1
same,"CK ≥ 5 and < ULN × 10, percentage of patients",[3],(0.6) percentage
same,"CK ≥ ULN × 10, number of patients",[3],1
same,"CK ≥ ULN × 10, percentage of patients",[3],(0.6) percentage
same,"sCr ≥ ULN, number of patients",[3],22
same,"sCr ≥ ULN, percentage of patients",[3],(12.7) percentage
same,"ADE Leading to withdrawal, number of patients",[4],3
same,"ADE Leading to withdrawal, percentage of patients",[4],(1.7) percentage
same,"ADE Serious, number of patients",[4],1
same,"ADE Serious, percentage of patients",[4],(0.6) percentage
same,"ADE Total, number of patients",[4],16
same,"ADE Total, percentage of patients",[4],(9.2) percentage
same,"AE Leading to withdrawal, number of patients",[4],6
same,"AE Leading to withdrawal, percentage of patients",[4],(3.4) percentage
same,"AE Serious, number of patients",[4],2
same,"AE Serious, percentage of patients",[4],(1.1) percentage
same,"AE Total, number of patients",[4],60
same,"AE Total, percentage of patients",[4],(34.5) percentage
